Measurements reported in a melting point compilation (Tetko et al.; mined from patent text by program, amines drawn as free bases though some values may be those of a salt).

melting point [°C]	Structure (SMILES)
305 to 308	COc1ccc(-c2nnc3c4ccccc4c(Nc4cccc(-c5nn[nH]n5)c4)nn23)cc1
122 to 123	CCOc1ccc(OCc2ccc(OCc3nc(-c4ccccc4)oc3C)cc2)c(CC(=O)O)c1
162 to 164	CCCCCn1cc(CCCC)n(Cc2ccc(-c3ccccc3-c3nnn[nH]3)nc2)c1=O
106 to 108	COC(=O)CCC(=O)c1ccc2oc3ccccc3c2c1
186 to 187	c1ccc(N(c2ccccc2)c2cccc3cc(-c4nc5ccccc5s4)ccc23)cc1
122 to 123	CCOc1cc(OCc2cccc(OCc3nc(-c4ccccc4)oc3C)c2)ccc1CCC(=O)O
166 to 168	CCOC(=O)c1cc(NCc2ccccc2)c(Oc2cccc(C(F)(F)F)c2)c(S(N)(=O)=O)c1
165 to 167	O=C(NCCCCCCCCc1ccccc1)c1cc(-c2cccc(Cl)c2)c(OCCO)c(-c2cccc(Cl)c2)c1
117 to 118	N#CCCNC(=O)c1cccc(-c2cccc3oc(Cc4cccc(C(F)(F)F)c4)nc23)c1
186 to 188	O=C(O)CS(=O)c1cccc(-c2nc(=O)c3ccccc3s2)n1 (stereo not given)
163	CCOC(=O)c1c(NCC(=O)c2ccccc2Cc2ccccc2)c2c(Cl)cc(Cl)cc2n1C(=O)OC(C)(C)C
206 to 208	COc1cccc(NC(=O)NCc2nnc(C)n2-c2sc(C(=O)O)cc2C(=O)c2ccccc2Cl)c1
90 to 92	CCCOc1nc2cccc(C(=O)OCC)c2n1Cc1ccc(-c2ccccc2C#N)cc1
208 to 212	COc1ccc(-c2nc(C(N)=O)c(N)nc2-c2ccccc2)cn1
254 to 258	O=C(O)c1cccc(CN2C(=O)C3(COc4cc5c(cc43)OCCO5)c3ccccc32)c1 (stereo not given)
128 to 130	Cc1nc2cccc(S(=O)(=O)n3c(COC(C)(C)C(=O)O)cc4cc(Cl)ccc43)c2s1
224	COc1cccc(O)c1-c1ccc(C[C@H](NC(=O)c2c(Cl)cccc2Cl)C(=O)O)cc1
152 to 153	O=C1c2ccccc2C(=O)N1c1cc(CCl)ccn1

melting point [°C]	Structure (SMILES)
56 to 66	CCC(CC)C(NS(=O)(=O)c1ccc(Cl)c(Cl)c1)c1ccnn1-c1ccccc1 (stereo not given)
169 to 171	O=C(NCc1cccnc1)c1ccc2n1Cc1ccccc1N(C(=O)COc1ccc(Cl)cc1)C2
185 to 186	OC(c1ccccc1)(c1ccccc1-c1ccccc1)C1CCNCC1 (stereo not given)
173 to 175	N#Cc1ccc(NC(=N)Nc2ncccc2OCc2ccccc2)cc1
135 to 138	COc1ccc2c(c1)C(C(=O)N(Cc1ccc(NCc3ccccc3)cc1)c1ccc(C(C)C)cc1)CCC2 (stereo not given)
218 to 221	O=C1CCCN1Cc1ccc(CCn2cnc3cc(-c4ccc(Cl)cc4)sc3c2=O)cc1
201	CCC(=O)N(C)c1cccc(-c2nc(=O)c3ccccc3s2)n1
150 to 151	CCCc1c(Cc2ccccc2C(=O)O)cccc1OCCCOc1cc(O)c(-c2ccc(F)cc2)cc1CC
210 to 212	CC1=C(c2ccc(Cl)cc2)n2ncc(C(N)=O)c2NC1
96 to 97	COc1ccc(-c2nc(COc3ccc(CCCn4ccnc4)cc3)co2)s1
237	Cc1cc(-c2cccc(C3=Nc4cc(O)c(-c5ccccc5F)cc4NC(=O)C3)c2)on1
195 to 196	Clc1ccc2c(c1)N=C(NCCc1cccnc1)c1ccccc1N2
105 to 107	O=c1[nH]c2ccc(CCCN3CCC(Cc4ccc(F)cc4)CC3)cc2o1
244 to 247	O=C(O)c1cccc(Nc2nc(Oc3ccccc3)nc(Oc3ccc(Cl)cc3)n2)c1
206	N#Cc1ccc(CC(NC(=O)C(Cc2ccccc2)S(=O)(=O)Nc2ccc3ccccc3c2)C(=O)N2CCCC2)cc1 (stereo not given)
198 to 200	O=C(NNS(=O)(=O)c1ccccc1)c1nccc2ccccc12
202 to 205	Cc1c(Cl)[nH]c(=O)n(Cc2ccccc2)c1=O

The remaining lines, values behind:

Structure (SMILES)	melting point [°C]
OCC1Oc2ccccc2OC1CO (stereo not given)	119 to 120
CCC(C(C)=CC(CNC(=O)c1cnc2nc(C)ccc2c1O)=NO)[N+](=O)[O-] (stereo not given)	204 to 205
CCOC(=O)c1cc2cccnc2nc1C(=O)OCC	83 to 85
COc1cc(CCl)nc(N)n1	89 to 90
COc1nc2ccccc2cc1NC(=S)N1CCN(c2cc(F)cc(F)c2)CC1	140 to 142
OC(CN1CCC(C(O)c2ccccc2)CC1)c1ccccc1 (stereo not given)	104
CNC(=O)N(O)C(C)C#Cc1ccc(C)cc1 (stereo not given)	137 to 138
CC(C)C=C1CCC2(C1)C(=O)C=C(OC(C)C)CC2C (stereo not given)	88 to 91
Cc1cccnc1C(CO)COc1ccc([N+](=O)[O-])cc1 (stereo not given)	135 to 136
CN1CCC(OC2c3ccccc3CCn3c2nc(-c2ccc(Br)cc2)c3Cl)CC1 (stereo not given)	169
COc1cncnc1N1CCN(CCCc2c[nH]c3ccc(Nc4c(OC(C)C)c(=O)c4=O)cc23)CC1	140 to 143
CS(=O)(=O)c1cccc(NC(=O)c2cnn3c(C(F)(F)F)cc(-c4ccc(C(F)(F)F)c(Cl)c4)nc23)c1	268
CCOC(=O)C(C#N)=Cc1cc(OC)c(N)c(OC)c1	77 to 78
NC(=O)c1cnn2c1NCC=C2c1cccc(F)c1	122 to 125
COCCOc1cc(N)c([N+](=O)[O-])cc1I	121 to 122
CCCCc1nn(-c2cc([N+](=O)[O-])ccc2Cl)c(C(=O)O)c1Cc1ccc(Br)cc1F	> 55
CN(CCCC(N)=O)Cc1ccc(Cl)cc1	62 to 64
CCCOc1cc(/C=C/C(=O)OCC)n(Cc2ccccc2)n1	56 to 57
O=C(O)C1=Cc2cc(Cl)c(Oc3ccc(Cl)cc3Cl)cc2OC1C(F)(F)F (stereo not given)	233 to 234
CCOCCOC(=O)C1=C(C)NC(C=O)=C(C(=O)OCC)C1c1cccc([N+](=O)[O-])c1 (stereo not given)	100 to 101

Structure (SMILES)	melting point [°C]
O=C1NCCc2oc3ccccc3c21	158 to 161
CC#CCCn1ncc2c(OCC)c(C(=O)OCC)cnc21	93 to 95
CCCCn1c(=O)c2cn(S(=O)(=O)c3ccc(C(F)(F)F)cc3)nc2n(CCCC)c1=O	151 to 153
CC(=O)Nc1ccc([N+](=O)[O-])cc1-c1cc([N+](=O)[O-])ccc1NC(C)=O	263 to 265
COC(=O)Cc1ccc(CNC(=O)C2Cc3c(OC)cccc3N2S(=O)(=O)c2ccc(-c3cccc(C(F)(F)F)c3)cc2)cc1 (stereo not given)	80
CCCCOc1ccc(CC(C)C(=O)Oc2ccc(-c3ccc(C#N)cc3)cc2)cc1 (stereo not given)	76.1 to 77.1
Cc1cc(-n2ccnc2)c2cccc(OCc3c(Cl)ccc(S(=O)(=O)N4CCC[C@H]4C(=O)NCCN4CCCCC4)c3Cl)c2n1	108
CCCCOc1c(C(C)O)n(C)c(=O)c2cc(Cl)c(Cl)cc12 (stereo not given)	123 to 124
CC(=O)Nc1nc2c(s1)-c1nc(N3CCCC(CNC(=O)OC(C)(C)C)C3)ncc1CC2 (stereo not given)	250 to 255
COc1cc2c(cc1O)C(C)(C)CC2=O	105 to 107
OC(Cn1ccnc1)c1cccnc1 (stereo not given)	119 to 121
CCCCCCCCCCCCCCCCCCOc1cc(OCCOc2ccc3ccccc3c2)cc(C(=O)O)c1	93 to 94
NC(=S)Cn1c(=O)sc2ccccc21	205 to 207
COc1cc(N)c(Cl)cc1C(=O)NCCN1CCC2(CC1)C(=O)NCN2c1ccccc1	247
CCOc1nn(Cc2ccnc(OCc3cn4c(Cl)cccc4n3)c2)cc1CCC(=O)O	160 to 161
O=C(OCc1ccccc1C(=O)O)c1ccccc1	118 to 124
CCc1nc(-c2ccc(OCCC3CCN(c4ccc(C)nn4)CC3)cc2)no1	125
Cc1c(-c2ccccc2)n(-c2c(F)c(F)c(F)c(F)c2F)c(-c2ccccc2)cc1=O	192 to 194
COCCOc1ccc(/C=C/COC(=O)NS(=O)(=O)NCCN2CCCC2)c(Oc2ncc(C(F)(F)F)cc2Cl)c1	154 to 156
Cc1cnc(-c2ccc(C(F)(F)F)cc2)nc1Cl	110 to 112

Structure (SMILES)	melting point [°C]
COCc1cnc2c([N+](=O)[O-])ccc(C)c2c1Cl	120 to 124
CCOc1cc2c(Nc3cc(OC)c(Cl)cc3Cl)c(C#N)cnc2cc1OCCCC1CCN(C)CC1	148 to 151
CC(C)n1cnc(N2CCc3ccccc3CC2)c(C#N)c1=O	152 to 154
COC(=O)N=c1[nH]c2ccccc2n1C1CCN(Cc2ccccc2)CC1	170
CN1CC(C(=O)c2oc(C3CCS(=O)(=O)CC3)cc2Cc2ccc(F)cc2)=C(O)C1=O	200 to 203
CN1C(=O)C=C(c2ccc3c(c2)OCO3)C1=O	210 to 215
CCC(NCC(F)(F)F)c1ccc(Cl)c2nc3n(c12)CCCN3c1ccc(Cl)cc1Cl (stereo not given)	133 to 135
Cc1ccc(C(=O)OC2CCCCC2=O)cc1 (stereo not given)	68 to 69
O=C1CC2(CN1)CC(=O)c1cc(Cl)cc(Cl)c12 (stereo not given)	226 to 228
Cc1c(-c2ncncc2Br)ssc1=S	122
O=C(Nc1ccccc1)N1CC2CCC(C1)O2	184 to 186
CCOC(=O)c1ncn2c1[C@@H]1CCCN1C(=O)c1cc(Cl)ccc1-2	242 to 244
Nc1cc(F)c(OC(F)F)cc1[N+](=O)[O-]	95 to 97.5
COC1=C(OC)C(=O)C(CCCCC[C@H]2CC[C@H](OC(C)=O)CC2)=C(C)C1=O	33 to 34
CC(C)(C)Oc1nc2cc(F)c([N+](=O)[O-])cc2nc1Cl	141 to 143
CCOC(=O)C1C(=O)C(C(=O)c2ccc(Cl)cc2[N+](=O)[O-])C(=O)CC1CC(C)SCC (stereo not given)	102 to 104
CN1CCc2cc([N+](=O)[O-])c(O)cc2C(c2ccc3c(c2)CCC3)C1 (stereo not given)	58 to 63
CCOC(=O)C1=C(C)NC(OC)=NC1c1cccc([N+](=O)[O-])c1 (stereo not given)	101 to 103
CNc1nc(-c2ccc(Cl)c(Cl)c2)ncc1N(C)C(=O)N1CCOCC1	227
Cc1cc2c(s1)CCCC(=O)N2	133 to 135
